Measured values published in EP3153515A1, “COMPOUNDS FOR INHIBITING HEPATITIS C VIRUS, PHARMACEUTICAL COMPOSITIONS AND USES THEREOF” (priority 2014, dated 2015).

What follows are compounds tested on HCV NS5A replicon GT-1a (assay: HCV NS5A replicon anti-viral activity (EC50), dual-reporter Renilla luciferase, GT-1a). Conditions: Hepatitis C virus, GT1A; GT-1a replicon; read-out: NS5A Inhibitory Activity (EC50 of GT-1a subtype inhibition).
Assay type: cell-based
Description: The autonomous replication level of HCV in liver cells in vitro is very low, and the only animal that can be infected by HCV is chimpanzee, therefore there is no appropriate animal model currently available for preclinical pharmacodynamic study. Some researchers have transplanted human liver tissue infected with HCV in vitro into immune deficient mice to establish an in vivo mice model, but these mice are hard to raise and the model is unstable and short of normal immunologic reaction. Moreover, the model has significant difference with the pathogenic process of hepatitis C, therefore, it has not been used for animal model to assess the action of anti-HCV medicine yet. The progress of the development of anti-viral drugs for the treatment of HCV infection had been very slow because the pathogenic mechanism and life cycle of HCV were unclear before 1999 due to the lack of cell culture system for effective multiplication of HCV. But researchers managed to achieve a breakthrough in 1999 after numerous attempts. An effective cell culture model-replicon system in which HCV is capable of autonomous replication in transfected human hepatic carcinoma cell line Huh-7 had been established in that year on the basis of subgenomic HCV RNA built with genetic engineering.
The above-mentioned cell culture model-replicon system which has been widely accepted in the industry is used in this invention for ex vivo experiments and subsequent assessment of drugs based on the experiment results.
The therapeutic effect of the compounds of this invention on HCV infection can be preliminarily assessed through the following preclinical in vitro inhibitory action test and can be further confirmed in clinical trials. Other methods used in the invention are also quite familiar to professionals in this field with ordinary technical knowledge. Method for testing the anti-viral activity(EC50) in HCV NS5A replicon system: • The viral replication level in infected cells was determined by testing Renilla luciferase with the newly established dual-reporter gene replicon system. There was a good linear relation between the expression level of the reporter gene and the HCV RNA replication level and viral protein expression level. The anti-viral activity was determined for 3 replicates in 3 replicate cells at five(5) 1:2 diluted concentration gradients, with 1 to 2 positive controls. The EC50 of the compounds was calculated in the end.
The compounds of the invention, or their stereoisomers, tautomers, esterified or amidated prodrugs, or pharmaceutically acceptable salts and mixtures have been subjected to test to determined their therapeutic effects in the treatment of HCV infection. […] Moreover, the results of 6a-6ep(Ia), 6fa-6gq(Ib) and reference compounds Ref-1(BMS-790052), Ref-2(GS5885), Ref-3 in HCV-NS5 inhibition test reveal that the cyclopentanyl/hexamethyleneamino radical containing linear polypeptide compounds 6a-6ep, 6fa-6gq and reference compounds Ref-1, Ref-2, Ref-3 have good HCV inhibitory results. […] The replicons GT-1a, GT-lb, GT-2a, GT-3a, GT-4a, GT-5a and GT-6a used for the test are routine replicons commercially available in this field. Table 1: HCV NS5A replicon inhibitory activity test results of compounds (6a-6gq) of the invention
Work on `COC(=O)N[C@H](C(=O)N1CCC[C@H]1c1nc(-c2ccc(-c3ccc(-c4cnc([C@@H]5C[C@@H](OC(=O)N6Cc7ccc8c(c7C6)OCO8)CN5C(=O)[C@@H](NC(=O)OC)C(C)C)[nH]4)cc3)cc2)c[nH]1)C(C)C` [6a] yielded an EC50 of 0.001 to 0.999 nM.
For `COC(=O)N[C@H](C(=O)N1CCCC[C@H]1c1nc(-c2ccc(-c3ccc(-c4c[nH]c([C@@H]5CCCN5C(=O)[C@@H](NC(=O)OC)C(C)C)n4)cc3)cc2)c[nH]1)C(C)C` [6ab], the EC50 was 0.001 to 0.999 nM.
In the case of `COC(=O)N[C@H](C(=O)N1CCCC[C@H]1c1nc(-c2ccc(-c3ccc(-c4c[nH]c([C@@H]5C[C@H](OC(=O)N6Cc7cc8c(cc7C6)OCO8)CN5C(=O)[C@@H](NC(=O)OC)C(C)C)n4)cc3)cc2)c[nH]1)C(C)C` [6ac], the EC50 is reported as 0.001 to 0.999 nM.
`COC(=O)N[C@H](C(=O)N1CCCC[C@H]1c1nc(-c2ccc(-c3ccc(-c4c[nH]c([C@@H]5COCCN5C(=O)[C@@H](NC(=O)OC)C(C)C)n4)cc3)cc2)c[nH]1)C(C)C` [6aj] gave an EC50 of 0.001 to 0.999 nM.
With `CC(C)(C)OC(=O)N[C@H](C(=O)N1CC=C[C@H]1c1ncc(-c2ccc(-c3ccc(-c4c[nH]c([C@@H]5CCCN5C(=O)[C@@H](NC(=O)OC(C)(C)C)C(C)(C)C)n4)cc3)cc2)[nH]1)C(C)(C)C` [6bb] the EC50 was over 50 nM.
Work on `COC(=O)N[C@H](C(=O)N1CCC[C@H]1c1nc(-c2ccc(-c3ccc(-c4cnc([C@@H]5C=CCN5C(=O)[C@@H](NC(=O)OC(C)(C)C)C(C)C)[nH]4)cc3)cc2)c[nH]1)C(C)C` [6bc] yielded an EC50 of 1 to 49.9 nM.
`COC(=O)N[C@H](C(=O)N1CC=C[C@H]1c1nc(-c2ccc(-c3ccc(-c4cnc([C@@H]5C=CCN5C(=O)[C@@H](NC(=O)OC)C(C)C)[nH]4)cc3)cc2)c[nH]1)C(C)C` [6bd] showed an EC50 of 0.001 to 0.999 nM.
In the case of `CC(C)[C@H](NC(=O)OC(C)(C)C)C(=O)N1CC=C[C@H]1c1nc(-c2ccc(-c3ccc(-c4cnc([C@@H]5C=CCN5C(=O)[C@@H](NC(=O)OC(C)(C)C)C(C)C)[nH]4)cc3)cc2)c[nH]1` [6be], the EC50 is reported as 0.001 to 0.999 nM.
With `CC(C)[C@H](NC(=O)OC1CCCC1)C(=O)N1CC=C[C@H]1c1nc(-c2ccc(-c3ccc(-c4cnc([C@@H]5C=CCN5C(=O)[C@@H](NC(=O)OC5CCCC5)C(C)C)[nH]4)cc3)cc2)c[nH]1` [6bf] the EC50 was over 50 nM.
Work on `CC(C)[C@H](NC(=O)OC1CCCC1)C(=O)N1CC=C[C@H]1c1ncc(-c2ccc(-c3ccc(-c4c[nH]c([C@@H]5CCCN5C(=O)[C@@H](NC(=O)OC5CCCC5)C(C)C)n4)cc3)cc2)[nH]1` [6bg] yielded an EC50 of over 50 nM.
`COC(=O)N[C@H](C(=O)N1CC=C[C@H]1c1nc(-c2ccc(-c3ccc(-c4c[nH]c([C@@H]5CCCN5C(=O)C5(NC(=O)OC)CC5)n4)cc3)cc2)c[nH]1)C(C)C` [6bh] gave an EC50 of 0.001 to 0.999 nM.
In the case of `COC(=O)N[C@H](C(=O)N1CC=C[C@H]1c1nc(-c2ccc(-c3ccc(-c4c[nH]c([C@@H]5CCCN5C(=O)C5(NC(=O)OC)CCCCC5)n4)cc3)cc2)c[nH]1)C(C)C` [6bj], the EC50 is reported as 0.001 to 0.999 nM.
`COC(=O)N[C@H](C(=O)N1CC=C[C@H]1c1nc(-c2ccc(-c3ccc(-c4c[nH]c([C@@H]5COCCN5C(=O)[C@@H](NC(=O)OC)C(C)C)n4)cc3)cc2)c[nH]1)C(C)C` [6bm] was tested, and the EC50 was 0.001 to 0.999 nM.
In the case of `COC(=O)N[C@H](C(=O)N1CCC[C@H]1c1ncc(-c2ccc(-c3cc4sc(-c5cnc([C@@H]6CN(C(=O)N7Cc8cc9c(cc8C7)OCO9)CN6C(=O)[C@@H](NC(=O)OC)C(C)C)[nH]5)cc4s3)cc2)[nH]1)C(C)C` [6bv], the EC50 is reported as 0.001 to 0.999 nM.
Compound `COC(=O)NC(C(=O)N1CCC[C@H]1c1ncc(-c2cc3sc(-c4ccc(-c5cnc([C@@H]6CN(C(=O)N7Cc8cc9c(cc8C7)OCO9)CN6C(=O)[C@@H](NC(=O)OC)C(C)C)[nH]5)cc4)cc3s2)[nH]1)c1ccccc1` (stereo partly drawn) [6bw] has an EC50 of 0.001 to 0.999 nM.
`COC(=O)NC(C(=O)N1CC=C[C@H]1c1ncc(-c2ccc(-c3ccc(-c4cnc([C@@H]5CCCN5C(=O)[C@@H](NC(=O)OC)C(C)C)[nH]4)cc3)cc2)[nH]1)c1ccccc1` (stereo partly drawn) [6bx] showed an EC50 of 0.001 to 0.999 nM.
In the case of `COC(=O)NC(C(=O)N1CCC[C@H]1c1nc(-c2ccc(-c3ccc(-c4c[nH]c([C@@H]5C=CCN5C(=O)[C@@H](NC(=O)OC)C(C)C)n4)cc3)cc2)c[nH]1)c1ccccc1` (stereo partly drawn) [6by], the EC50 is reported as 0.001 to 0.999 nM.
`COC(=O)NC(C(=O)N1CC=C[C@H]1c1ncc(-c2ccc(-c3ccc(-c4cnc([C@@H]5CCCN5C(=O)C(NC(=O)OC)c5ccccc5)[nH]4)cc3)cc2)[nH]1)c1ccccc1` (stereo partly drawn) [6bz] showed an EC50 of 0.001 to 0.999 nM.
Compound `COC(=O)NC(C(=O)N1CC=C[C@H]1c1ncc(-c2ccc(-c3ccc(-c4cnc([C@@H]5C=CCN5C(=O)C(NC(=O)OC)c5ccccc5)[nH]4)cc3)cc2)[nH]1)c1ccccc1` (stereo partly drawn) [6ca] has an EC50 of 0.001 to 0.999 nM.
`COC(=O)NC(C(=O)N1CC=C[C@H]1c1ncc(-c2ccc(-c3cc4sc(-c5cnc([C@@H]6CCCN6C(=O)[C@@H](NC(=O)OC)C(C)C)[nH]5)cc4s3)cc2)[nH]1)c1ccccc1` (stereo partly drawn) [6cb] was tested, and the EC50 was over 50 nM.
Work on `COC(=O)NC(C(=O)N1CC=C[C@H]1c1nc(-c2ccc(-c3cc4sc(-c5c[nH]c([C@@H]6CCCN6C(=O)C(NC(=O)OC)c6ccccc6)n5)cc4s3)cc2)c[nH]1)c1ccccc1` (stereo partly drawn) [6cc] yielded an EC50 of over 50 nM.
In the case of `COC(=O)NC(C(=O)N1CC=C[C@H]1c1nc(-c2ccc(-c3cc4sc(-c5c[nH]c([C@@H]6C=CCN6C(=O)C(NC(=O)OC)c6ccccc6)n5)cc4s3)cc2)c[nH]1)c1ccccc1` (stereo partly drawn) [6cd], the EC50 is reported as over 50 nM.
Work on `CN(C)C(=O)NC(C(=O)N1CC=C[C@H]1c1ncc(-c2ccc(-c3ccc(-c4cnc([C@@H]5CCCN5C(=O)C(NC(=O)N(C)C)c5ccccc5)[nH]4)cc3)cc2)[nH]1)c1ccccc1` (stereo partly drawn) [6ce] yielded an EC50 of 0.001 to 0.999 nM.
Compound `CNC(=O)NC(C(=O)N1CC=C[C@H]1c1ncc(-c2ccc(-c3ccc(-c4cnc([C@@H]5CCCN5C(=O)C(NC(=O)NC)c5ccccc5)[nH]4)cc3)cc2)[nH]1)c1ccccc1` (stereo partly drawn) [6cf] has an EC50 of 0.001 to 0.999 nM.
Compound `CC(C)[C@H](NC(=O)N(C)C)C(=O)N1CC=C[C@H]1c1ncc(-c2ccc(-c3ccc(-c4cnc([C@@H]5CCCN5C(=O)[C@@H](NC(=O)N(C)C)C(C)C)[nH]4)cc3)cc2)[nH]1` [6cg] has an EC50 of 0.001 to 0.999 nM.
Work on `CNC(=O)N[C@H](C(=O)N1CC=C[C@H]1c1ncc(-c2ccc(-c3ccc(-c4cnc([C@@H]5CCCN5C(=O)[C@@H](NC(=O)NC)C(C)C)[nH]4)cc3)cc2)[nH]1)C(C)C` [6ch] yielded an EC50 of 0.001 to 0.999 nM.
`COC(=O)N[C@H](C(=O)N1CCC[C@H]1c1ncc(-c2ccc(-c3ccc(-c4cnc([C@@H]5C=CCN5C(=O)[C@@H](NC(=O)N(C)C)C(C)C)[nH]4)cc3)cc2)[nH]1)C(C)C` [6ci] gave an EC50 of 0.001 to 0.999 nM.
In the case of `CNC(=O)N[C@H](C(=O)N1CC=C[C@H]1c1ncc(-c2ccc(-c3ccc(-c4cnc([C@@H]5CCCN5C(=O)[C@@H](NC(=O)OC)C(C)C)[nH]4)cc3)cc2)[nH]1)C(C)C` [6cj], the EC50 is reported as 0.001 to 0.999 nM.
In the case of `COC(=O)N[C@H](C(=O)N1CCC[C@H]1c1ncc(-c2ccc(-c3ccc(-c4cnc([C@@H]5CNCN5C(=O)[C@@H](NC(=O)OC)C(C)C)[nH]4)cc3)cc2)[nH]1)C(C)C` [6cu], the EC50 is reported as 0.001 to 0.999 nM.
`COC(=O)N[C@H](C(=O)N1CC=C[C@H]1c1ncc(-c2ccc(-c3ccc(-c4cnc([C@@H]5CN(C(=O)OC(C)(C)C)CN5C(=O)[C@@H](NC(=O)OC)C(C)C)[nH]4)cc3)cc2)[nH]1)C(C)C` [6cw] showed an EC50 of 0.001 to 0.999 nM.
In the case of `COC(=O)N[C@H](C(=O)N1CC=C[C@H]1c1ncc(-c2ccc(-c3ccc(-c4cnc([C@@H]5CN(S(C)(=O)=O)CN5C(=O)[C@@H](NC(=O)OC)C(C)C)[nH]4)cc3)cc2)[nH]1)C(C)C` [6cz], the EC50 is reported as 0.001 to 0.999 nM.
`COC(=O)N[C@H](C(=O)N1CC=C[C@H]1c1ncc(-c2ccc(-c3ccc(-c4cnc([C@@H]5CN(C(=O)OC(C)C)CN5C(=O)[C@@H](NC(=O)OC)C(C)C)[nH]4)cc3)cc2)[nH]1)C(C)C` [6dc] was tested, and the EC50 was 0.001 to 0.999 nM.
With `COC(=O)N[C@H](C(=O)N1CC=C[C@H]1c1ncc(-c2ccc(-c3ccc(-c4cnc([C@@H]5CN(S(=O)(=O)C(C)C)CN5C(=O)[C@@H](NC(=O)OC)C(C)C)[nH]4)cc3)cc2)[nH]1)C(C)C` [6dd] the EC50 was 0.001 to 0.999 nM.
For `COC(=O)N[C@H](C(=O)N1CC=C[C@H]1c1ncc(-c2ccc(-c3ccc(-c4cnc([C@@H]5CCCN5C(=O)[C@@H](NC(=O)N(C)C)C(C)C)[nH]4)cc3)cc2)[nH]1)C(C)C` [6df], the EC50 was 0.001 to 0.999 nM.
Work on `CNC(=O)N[C@@H](C(=O)N1CCC[C@H]1c1ncc(-c2ccc(-c3ccc(-c4cnc([C@@H]5C=CCN5C(=O)[C@@H](NC(=O)OC)C(C)C)[nH]4)cc3)cc2)[nH]1)c1ccccc1` [6dg] yielded an EC50 of 0.001 to 0.999 nM.
Compound `COC(=O)N[C@H](C(=O)N1CCC[C@H]1c1ncc(-c2ccc(-c3ccc(-c4cnc([C@@H]5C=CCN5C(=O)[C@@H](NC(=O)OC)C5CCCC5)[nH]4)cc3)cc2)[nH]1)C(C)C` [6dh] has an EC50 of 0.001 to 0.999 nM.
